Data: ChEMBL document CHEMBL3885861, “Open TG-GATES”

Species: Rattus norvegicus
Test: Open TG-GATES - Regimen: Daily Repeat
Format: toxicity, organism-based, Sprague-Dawley
Set-up: regimen Daily Repeat, gender Male, age 6 weeks
Conditions: in vivo, po, 2 mg/kg, route gavage, dose level Middle; for APTT / Bas / Eos / Fbg / Hb / Ht / Lym / MCH / MCHC / MCV / Mono / Neu / PT / Plat / RBC / Ret / WBC: tissue Blood; for KIDNEY_L / KIDNEY_R / KIDNEY_TOTAL: tissue Kidney; for LIVER: tissue Liver; for A/G / ALP / ALT / AST / BUN / CRE / Ca / Cl / DBIL / GLC / IP / K / LDH / Na / PL / RALB / TBIL / TC / TG / TP / gamma-GTP: tissue Plasma

## O=NN(CCCl)C(=O)NC1CCCCC1 [LOMUSTINE]
72 h, time 3 day
  TERMINAL_BW: 220 g
  APTT: 16.8 s
  Bas: 0%
  Eos: 0.8%
  Fbg: 231.8 mg/dL
  Hb: 13.3 g/dL
  Ht: 39.9%
  Lym: 82.4%
  MCH: 21.1 pg
  MCHC: 33.2%
  MCV: 63.7 fL
  Mono: 7.4%
  Neu: 9.6%
  PT: 11.7 s
  Plat: 108 x10_4/uL
  RBC: 628 x10_4/ul
  Ret: 6.9%
  WBC: 109.9 x10_2/uL
  KIDNEY_L: 1 g
  KIDNEY_R: 1 g
  KIDNEY_TOTAL: 2 g
  LIVER: 11.4 g
  A/G: 2
  ALP: 962.6 IU/L
  ALT: 29.8 IU/L
  AST: 59.4 IU/L
  BUN: 17 mg/dL
  CRE: 0.4 mg/dL
  Ca: 11 mg/dL
  Cl: 105.8 meq/L
  DBIL: 0.01 mg/dL
  GLC: 186.2 mg/dL
  IP: 7.9 mg/dL
  K: 4.7 meq/L
  LDH: 84 IU/L
  Na: 139.4 meq/L
  PL: 152.8 mg/dL
  RALB: 4 g/dL
  TBIL: 0.4 mg/dL
  TC: 83.2 mg/dL
  TG: 100.8 mg/dL
  TP: 5.9 g/dL
  gamma-GTP: 1.4 IU/L
[…], time 7 day
  TERMINAL_BW: 246.4 g
  APTT: 15.6 s
  Bas: 0%
  Eos: 1%
  Fbg: 246.8 mg/dL
  Hb: 13.9 g/dL
  Ht: 42%
  Lym: 80%
  MCH: 21 pg
  MCHC: 33.3%
  MCV: 63.2 fL
  Mono: 7.4%
  Neu: 11.6%
  PT: 11.4 s
  Plat: 98.8 x10_4/uL
  RBC: 664.2 x10_4/ul
  Ret: 5.1%
  WBC: 103.8 x10_2/uL
  KIDNEY_L: 1 g
  KIDNEY_R: 1 g
  KIDNEY_TOTAL: 2 g
  LIVER: 13 g
  A/G: 1.7
  ALP: 976.4 IU/L
  ALT: 47.2 IU/L
  AST: 85.8 IU/L
  BUN: 19.6 mg/dL
  CRE: 0.4 mg/dL
  Ca: 11.2 mg/dL
  Cl: 105.8 meq/L
  DBIL: 0.016 mg/dL
  GLC: 181.8 mg/dL
  IP: 7.7 mg/dL
  K: 4.6 meq/L
  LDH: 87 IU/L
  Na: 139.8 meq/L
  PL: 169.6 mg/dL
  RALB: 3.8 g/dL
  TBIL: 0.3 mg/dL
  TC: 98.8 mg/dL
  TG: 95.6 mg/dL
  TP: 6.1 g/dL
  gamma-GTP: 2.2 IU/L
[…], time 14 day
  TERMINAL_BW: 298.5 g
  APTT: 16.4 s
  Bas: 0%
  Eos: 0.6%
  Fbg: 228.4 mg/dL
  Hb: 14.3 g/dL
  Ht: 42.9%
  Lym: 81.8%
  MCH: 20.3 pg
  MCHC: 33.2%
  MCV: 61.2 fL
  Mono: 5.8%
  Neu: 11.8%
  PT: 11.4 s
  Plat: 129.2 x10_4/uL
  RBC: 701.8 x10_4/ul
  Ret: 4.3%
  WBC: 127.6 x10_2/uL
  KIDNEY_L: 1.2 g
  KIDNEY_R: 1.2 g
  KIDNEY_TOTAL: 2.5 g
  LIVER: 14.1 g
  A/G: 2.1
  ALP: 822.6 IU/L
  ALT: 36.2 IU/L
  AST: 66.8 IU/L
  BUN: 17.4 mg/dL
  CRE: 0.5 mg/dL
  Ca: 11.4 mg/dL
  Cl: 106.4 meq/L
  DBIL: 0.032 mg/dL
  GLC: 183.8 mg/dL
  IP: 7.3 mg/dL
  K: 4.6 meq/L
  LDH: 94.8 IU/L
  Na: 140.2 meq/L
  PL: 166 mg/dL
  RALB: 4.1 g/dL
  TBIL: 0.3 mg/dL
  TC: 77.2 mg/dL
  TG: 136 mg/dL
  TP: 6.1 g/dL
  gamma-GTP: 2.4 IU/L
[…], time 28 day
  TERMINAL_BW: 364.6 g
  APTT: 16 s
  Bas: 0%
  Eos: 1%
  Fbg: 230.4 mg/dL
  Hb: 14.9 g/dL
  Ht: 44.4%
  Lym: 80%
  MCH: 19 pg
  MCHC: 33.5%
  MCV: 56.9 fL
  Mono: 7.6%
  Neu: 11.6%
  PT: 11.3 s
  Plat: 113.9 x10_4/uL
  RBC: 780.6 x10_4/ul
  Ret: 2.5%
  WBC: 145.6 x10_2/uL
  KIDNEY_L: 1.4 g
  KIDNEY_R: 1.4 g
  KIDNEY_TOTAL: 2.7 g
  LIVER: 16.6 g
  A/G: 1.7
  ALP: 637.8 IU/L
  ALT: 61.4 IU/L
  AST: 115.8 IU/L
  BUN: 19.6 mg/dL
  CRE: 0.4 mg/dL
  Ca: 11.1 mg/dL
  Cl: 106.8 meq/L
  DBIL: 0.054 mg/dL
  GLC: 186.6 mg/dL
  IP: 6.3 mg/dL
  K: 4.5 meq/L
  LDH: 163 IU/L
  Na: 139.8 meq/L
  PL: 192.4 mg/dL
  RALB: 4.1 g/dL
  TBIL: 0.3 mg/dL
  TC: 106.6 mg/dL
  TG: 85.4 mg/dL
  TP: 6.5 g/dL
  gamma-GTP: 3.6 IU/L
